The values below come from publication PMC4967021 (Biochemical and biophysical research communications, 2016).

The target of the assay is T1, CCL21 (Homo sapiens, UniProt O00585).
T1 sequence (O00585 24-134): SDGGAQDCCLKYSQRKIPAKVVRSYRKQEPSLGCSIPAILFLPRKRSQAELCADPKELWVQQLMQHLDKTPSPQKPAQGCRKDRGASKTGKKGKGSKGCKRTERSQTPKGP
The assay is described as follows: […]-1H HSQC NMR titration, chemical shift perturbation fit with ligand depletion. The following applies: 100 µM 15N-CCL21, 25 mM deuterated MES pH 6.0, 10% D2O, 0.2% NaN3. Type of assay: binding.

The Kd is the equilibrium constant for the complex coming apart. As for `O=C(O)C1=C[C@H](O)[C@@H](OS(=O)(=O)O)[C@H](O[C@H]2[C@H](O)[C@@H](NS(=O)(=O)O)C(O)O[C@@H]2COS(=O)(=O)O)O1` (stereo partly shown) [heparin disaccharide I-S], the Kd is about 500 µM.
